Measurements: patent US7723320B2, “Use of estrogen compounds to increase libido in women” (Pantarhei Bioscience B.V., priority 2001, dated 2010)

Assays:
[1] = target: T1, human sex Hormone Binding Globulin (SHBG) (Homo sapiens, UniProt P04278); assay: Competitive steroid-binding assay, SHBG; settings: [3H]DHT or [3H]estradiol as labeled ligands
T1 construct: made in house; host or cells: transgenic mouse (purified from serum)
T1 sequence (P04278 30-402): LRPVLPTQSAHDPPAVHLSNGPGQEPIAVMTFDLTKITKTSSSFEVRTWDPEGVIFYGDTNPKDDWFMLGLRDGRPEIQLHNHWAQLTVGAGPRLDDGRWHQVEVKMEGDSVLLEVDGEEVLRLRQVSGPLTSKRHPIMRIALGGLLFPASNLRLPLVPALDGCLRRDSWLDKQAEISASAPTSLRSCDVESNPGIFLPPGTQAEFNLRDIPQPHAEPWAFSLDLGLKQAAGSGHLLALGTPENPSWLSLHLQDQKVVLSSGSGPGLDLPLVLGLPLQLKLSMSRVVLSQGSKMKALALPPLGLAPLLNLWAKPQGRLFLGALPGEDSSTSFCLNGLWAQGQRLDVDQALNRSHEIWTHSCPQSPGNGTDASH
Description: Human SHBG was treated for 30 min at room temperature with a dextran-coated charcoal (DCC) suspension in phosphate buffered saline (PBS) to remove any steroid ligand. After centrifugation (2,000×g for 10 min) to sediment the DCC, the supernatant containing the human SHBG was diluted in PBS to a concentration of 1 nM based on its steroid binding capacity.
The average amounts of [^3H]labeled ligands bound to SHBG at each concentration of competitor (B) were expressed as a percentage of the average amounts of [^3H]labeled ligands bound to SHBG in the absence of competitor (B0), and were plotted against the concentration of competitor in each assay tube.

[2] = system: ovariectomized adult rats; assay: Vaginal cornification bioassay in ovariectomized rats; assay type: in vivo, rat; settings: 0.05 mg/kg/day
From the text: Uterine weight increase in the rat is more commonly used as a measure of estrogenicity. […] In the early 1920s it was discovered that follicular fluid from the pig ovary contained a factor(s) that caused cornification/keratinization of the vaginal epithelium in the rat (Allen and Doisy, 1923, JAMA, 81,819-821; Allen and Doisy, 1924, Am. J. Physiol., 69, 577-588). The so-called vaginal cornification response in rats subsequently provided a bioassay for testing estrogenicity. Vaginal epithelial cornification/keratinization in ovariectomized rats can be produced only by compounds considered to be true estrogens (Jones et al, 1973, Fert. Steril. 24, 284-291). […] Adult intact female CD rats were ovariectomized to induce estrogen deficiency. […] Castrate vaginal smears are indicative that complete ovanectomy was achieved. Treatment commenced following completion of the 7 days of smearing (day 0=first day of dosing). Animals were dosed, once daily for 7 consecutive days. Daily vaginal lavages continued to be obtained for 7 days after dosing was initiated in order to detect vaginal cornification, as an indication of an estrogenic response. A drop of vaginal washings was placed on a glass slide and examined by light microscopy to detect the presence or absence of cornified epithelial cells. Vaginal lavages were obtained prior to dosing on days 0-6 and prior to necropsy on day 7. The vaginal cornification bioassay was performed in order to determine the estrogenic profile of E4 when given subcutaneously (sc) to ovariectomized adult rats. E2 was used as a positive control. […] The vaginal cornification bioassay was performed in order to determine the estrogenic profile of E4 when given orally (po) to ovariectomized adult rats. EE was used as a positive control. […] A vaginal estrogenic response occurred in all rats (8/8) given 50 μg/kg/day EE po by day 7 (Table 2).

C[C@]12CCC(=O)C[C@@H]1CC[C@@H]1[C@@H]2CC[C@]2(C)[C@@H](O)CC[C@@H]12 [5α-dihydrotestosterone]
relative binding affinity for human SHBG [1]: in this order, show an increased relative binding affinity

C[C@]12CC[C@@H]3c4ccc(O)cc4CC[C@H]3[C@@H]1CC[C@@H]2O [E2, 17β-estradiol, reference compound]
Number of Rats Exhibiting Estrogenic Response/Number of Rats Treated ([2]; sc, Day 0): 0/8
Number of Rats Exhibiting Estrogenic Response/Number of Rats Treated ([2]; sc, Day 1): 0/8
Number of Rats Exhibiting Estrogenic Response/Number of Rats Treated ([2]; sc, Day 2): 8/8
Number of Rats Exhibiting Estrogenic Response/Number of Rats Treated ([2]; sc, Day 3): 8/8
Number of Rats Exhibiting Estrogenic Response/Number of Rats Treated ([2]; sc, Day 4): 8/8
Number of Rats Exhibiting Estrogenic Response/Number of Rats Treated ([2]; sc, Day 5): 8/8
Number of Rats Exhibiting Estrogenic Response/Number of Rats Treated ([2]; sc, Day 6): 8/8
Number of Rats Exhibiting Estrogenic Response/Number of Rats Treated ([2]; sc, Day 7): 8/8

C#C[C@]1(O)CC[C@H]2[C@@H]3CCc4cc(O)ccc4[C@H]3CC[C@@]21C [EE, 17α-ethinylestradiol, reference compound]
Number of Rats Exhibiting Estrogenic Response/Number of Rats Treated ([2]; po, Day 0): 0/8
Number of Rats Exhibiting Estrogenic Response/Number of Rats Treated ([2]; po, Day 1): 1/8
Number of Rats Exhibiting Estrogenic Response/Number of Rats Treated ([2]; po, Day 2): 3/8
Number of Rats Exhibiting Estrogenic Response/Number of Rats Treated ([2]; po, Day 3): 8/8
Number of Rats Exhibiting Estrogenic Response/Number of Rats Treated ([2]; po, Day 4): 8/8
Number of Rats Exhibiting Estrogenic Response/Number of Rats Treated ([2]; po, Day 5): 8/8
Number of Rats Exhibiting Estrogenic Response/Number of Rats Treated ([2]; po, Day 6): 8/8
Number of Rats Exhibiting Estrogenic Response/Number of Rats Treated ([2]; po, Day 7): 8/8

C[C@]12CC[C@H]3[C@@H](CCC4=CC(=O)CC[C@@]43C)[C@@H]1CC[C@@H]2O [testosterone]
relative binding affinity for human SHBG [1]: in this order, show an increased relative binding affinity
